From BindingDB's records for doi:10.1016/j.bmcl.2014.07.007 (Astrazeneca, 2014)

What was measured:
[1] = biological target: Phosphatidylinositol 4,5-bisphosphate 3-kinase catalytic subunit alpha isoform (Homo sapiens, UniProt P42336); experiment: Inhibition of human recombinant PI3Kalpha assessed as PIP3 production by AlphaScreen assay
[2] = biological target: Phosphatidylinositol 4,5-bisphosphate 3-kinase catalytic subunit beta isoform (Homo sapiens, UniProt P42338); experiment: Inhibition of human recombinant PI3Kbeta assessed as PIP3 production by AlphaScreen assay
Sequence of Phosphatidylinositol 4,5-bisphosphate 3-kinase catalytic subunit beta isoform (P42338 whole entry, canonical isoform): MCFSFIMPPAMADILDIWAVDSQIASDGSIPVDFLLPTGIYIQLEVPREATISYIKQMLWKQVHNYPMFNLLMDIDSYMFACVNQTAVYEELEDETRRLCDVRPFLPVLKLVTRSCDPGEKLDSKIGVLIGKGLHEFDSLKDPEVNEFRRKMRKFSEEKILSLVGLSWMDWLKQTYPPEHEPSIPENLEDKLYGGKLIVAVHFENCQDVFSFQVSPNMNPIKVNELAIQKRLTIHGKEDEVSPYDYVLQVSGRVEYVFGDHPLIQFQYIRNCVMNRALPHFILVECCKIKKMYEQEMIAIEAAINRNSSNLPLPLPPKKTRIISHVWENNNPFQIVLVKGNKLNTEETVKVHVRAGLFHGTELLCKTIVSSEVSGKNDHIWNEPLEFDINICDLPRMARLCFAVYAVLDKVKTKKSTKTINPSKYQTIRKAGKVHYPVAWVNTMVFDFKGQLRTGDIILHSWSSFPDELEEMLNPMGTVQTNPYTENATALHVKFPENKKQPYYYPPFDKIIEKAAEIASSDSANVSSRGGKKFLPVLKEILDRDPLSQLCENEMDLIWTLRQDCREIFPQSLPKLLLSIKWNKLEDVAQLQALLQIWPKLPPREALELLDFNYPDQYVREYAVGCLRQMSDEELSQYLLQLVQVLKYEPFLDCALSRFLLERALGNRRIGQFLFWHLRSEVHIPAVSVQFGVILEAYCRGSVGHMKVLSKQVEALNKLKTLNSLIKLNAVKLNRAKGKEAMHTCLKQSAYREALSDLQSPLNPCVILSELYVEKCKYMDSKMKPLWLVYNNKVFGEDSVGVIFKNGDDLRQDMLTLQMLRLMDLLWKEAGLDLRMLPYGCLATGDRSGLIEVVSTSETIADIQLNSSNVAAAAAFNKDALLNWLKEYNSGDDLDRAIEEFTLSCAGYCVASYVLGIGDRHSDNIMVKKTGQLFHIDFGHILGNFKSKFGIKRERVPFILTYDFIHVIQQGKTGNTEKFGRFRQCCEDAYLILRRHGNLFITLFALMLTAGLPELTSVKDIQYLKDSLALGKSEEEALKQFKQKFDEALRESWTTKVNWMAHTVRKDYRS

Sequence of Phosphatidylinositol 4,5-bisphosphate 3-kinase catalytic subunit alpha isoform (P42336 whole entry, canonical isoform): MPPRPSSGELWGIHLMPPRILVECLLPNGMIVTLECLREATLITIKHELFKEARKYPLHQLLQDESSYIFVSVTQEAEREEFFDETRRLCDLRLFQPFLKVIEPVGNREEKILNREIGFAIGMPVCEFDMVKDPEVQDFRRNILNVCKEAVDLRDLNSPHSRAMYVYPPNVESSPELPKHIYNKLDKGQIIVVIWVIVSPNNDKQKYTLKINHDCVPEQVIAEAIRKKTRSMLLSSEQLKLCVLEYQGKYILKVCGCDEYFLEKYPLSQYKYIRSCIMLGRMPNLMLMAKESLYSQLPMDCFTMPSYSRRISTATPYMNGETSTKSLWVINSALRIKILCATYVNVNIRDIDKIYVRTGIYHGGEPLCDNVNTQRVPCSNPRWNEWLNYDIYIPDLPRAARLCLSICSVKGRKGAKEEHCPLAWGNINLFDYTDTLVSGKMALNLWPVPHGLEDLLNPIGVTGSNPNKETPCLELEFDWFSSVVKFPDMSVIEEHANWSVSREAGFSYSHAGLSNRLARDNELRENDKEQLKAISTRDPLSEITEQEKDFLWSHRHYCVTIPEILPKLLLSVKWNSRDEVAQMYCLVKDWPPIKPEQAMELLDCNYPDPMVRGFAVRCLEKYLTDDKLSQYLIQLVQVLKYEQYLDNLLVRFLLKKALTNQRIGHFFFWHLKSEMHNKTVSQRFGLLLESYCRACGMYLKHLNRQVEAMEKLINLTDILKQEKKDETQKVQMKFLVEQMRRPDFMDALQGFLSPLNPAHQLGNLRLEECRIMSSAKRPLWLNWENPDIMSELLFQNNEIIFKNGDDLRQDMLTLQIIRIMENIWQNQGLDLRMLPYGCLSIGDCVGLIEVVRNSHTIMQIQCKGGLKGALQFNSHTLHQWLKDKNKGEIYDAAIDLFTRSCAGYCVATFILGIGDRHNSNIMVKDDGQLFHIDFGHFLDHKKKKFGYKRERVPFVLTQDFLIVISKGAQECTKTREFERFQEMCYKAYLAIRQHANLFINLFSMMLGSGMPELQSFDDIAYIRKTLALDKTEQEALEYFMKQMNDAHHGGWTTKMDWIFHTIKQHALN

IC50 [1]	IC50 [2]	Structure (SMILES)
2.5 µM	0.068 µM	CC(Nc1ccccc1)c1cc(C(=O)N(C)C)cn2c(=O)cc(N3CCOCC3)nc12 (centres undefined)
2.3 µM	0.035 µM	CC(Nc1ccccc1)c1cc(C(=O)NCCN(C)C)cn2c(=O)cc(N3CCOCC3)nc12 (centres undefined)
1.41 µM	0.051 µM	Cc1cc(C(C)Nc2ccccc2-c2nnn[nH]2)c2nc(N3CCOCC3)cc(=O)n2c1 (centres undefined)
0.33 µM	0.03 µM	Cc1cc(C(C)Nc2ccccc2S(=O)(=O)O)c2nc(N3CCOCC3)cc(=O)n2c1 (centres undefined)
1.46 µM	0.031 µM	Cc1cc(C(C)Nc2cc(Cl)ccc2C(=O)O)c2nc(N3CCOCC3)cc(=O)n2c1 (centres undefined)
12.1 µM	4.8 µM	Cc1cc(C(C)Nc2cccc(C(=O)O)c2)c2nc(N3CCOCC3)cc(=O)n2c1 (centres undefined)
0.6 µM	0.046 µM	Cc1c(F)cccc1OC(C)c1cc(C(=O)N(C)CCO)cn2c(=O)cc(N3CCOCC3)nc12 (centres undefined)
–	0.2 µM	Cc1cc(OC(C)c2cc(C(=O)N(C)CCO)cn3c(=O)cc(N4CCOCC4)nc23)ccc1F (centres undefined)
4.5 µM	0.047 µM	COc1cccc(OC(C)c2cc(C(=O)N(C)CCO)cn3c(=O)cc(N4CCOCC4)nc23)c1 (centres undefined)
2.5 µM	0.4 µM	COc1ccccc1OC(C)c1cc(C(=O)N(C)CCO)cn2c(=O)cc(N3CCOCC3)nc12 (centres undefined)
8.2 µM	1.7 µM	CC(Oc1cccc(C#N)c1)c1cc(C(=O)N(C)CCO)cn2c(=O)cc(N3CCOCC3)nc12 (centres undefined)
3.4 µM	0.66 µM	CC(Oc1ccccc1F)c1cc(C(=O)N(C)CCO)cn2c(=O)cc(N3CCOCC3)nc12 (centres undefined)
9.4 µM	0.18 µM	Cc1cccc(OC(C)c2cc(C(=O)N(C)CCO)cn3c(=O)cc(N4CCOCC4)nc23)c1 (centres undefined)
1.3 µM	0.11 µM	Cc1ccccc1OC(C)c1cc(C(=O)N(C)CCO)cn2c(=O)cc(N3CCOCC3)nc12 (centres undefined)
10.1 µM	0.19 µM	CC(Oc1ccccc1)c1cc(C(=O)N(C)CCO)cn2c(=O)cc(N3CCOCC3)nc12 (centres undefined)
4.8 µM	0.076 µM	CC(Nc1ccccc1)c1cc(C(=O)NCCN2CCNCC2)cn2c(=O)cc(N3CCOCC3)nc12 (centres undefined)
3.8 µM	0.34 µM	CC(Nc1ccccc1)c1cc(C(=O)N(C)CC(=O)O)cn2c(=O)cc(N3CCOCC3)nc12 (centres undefined)
6.9 µM	0.14 µM	CC(Nc1ccccc1)c1cc(C(=O)N2CCOCC2)cn2c(=O)cc(N3CCOCC3)nc12 (centres undefined)
2.2 µM	0.058 µM	CC(Nc1ccccc1)c1cc(C(=O)N(C)CCO)cn2c(=O)cc(N3CCOCC3)nc12 (centres undefined)
0.61 µM	0.059 µM	CC(Nc1ccccc1)c1cc(C(=O)O)cn2c(=O)cc(N3CCOCC3)nc12 (centres undefined)
